Experiments:
HT-29 = assay: Anti-necroptic activity in human HT-29 cells assessed as inhibition of TSZ (TNFalpha, Smac mimetic and z-VAD-FMK) induced necroptosis incubated for 24 hrs by celltiter-glo luminescent cell viability assay; assay type: functional, cell-based; conditions: HT-29, 24 h
[1] = molecular target: Receptor-interacting serine/threonine-protein kinase 3 (Homo sapiens) (UniProt Q9Y572); assay: Inhibition of full length RIP3 (unknown origin) assessed as substrate phosphorylation using MBP and ATP as substrate at 1 uM preincubated for 15 mins followed by substrate addition and measured after 90 mins by ADP-Glo luminescence assay; values are per cent of control; conditions: time 105.0 min
[2] = molecular target: T1, Receptor-interacting serine/threonine-protein kinase 1 (Homo sapiens) (UniProt Q13546); assay: Inhibition of RIP1 (1 to 375 residues) (unknown origin) assessed as substrate phosphorylation using MBP and ATP as substrate at 10 uM preincubated for 15 mins followed by substrate addition and measured after 90 mins by ADP-Glo luminescence assay; values are per cent of control; conditions: time 105.0 min
T1 sequence (whole entry): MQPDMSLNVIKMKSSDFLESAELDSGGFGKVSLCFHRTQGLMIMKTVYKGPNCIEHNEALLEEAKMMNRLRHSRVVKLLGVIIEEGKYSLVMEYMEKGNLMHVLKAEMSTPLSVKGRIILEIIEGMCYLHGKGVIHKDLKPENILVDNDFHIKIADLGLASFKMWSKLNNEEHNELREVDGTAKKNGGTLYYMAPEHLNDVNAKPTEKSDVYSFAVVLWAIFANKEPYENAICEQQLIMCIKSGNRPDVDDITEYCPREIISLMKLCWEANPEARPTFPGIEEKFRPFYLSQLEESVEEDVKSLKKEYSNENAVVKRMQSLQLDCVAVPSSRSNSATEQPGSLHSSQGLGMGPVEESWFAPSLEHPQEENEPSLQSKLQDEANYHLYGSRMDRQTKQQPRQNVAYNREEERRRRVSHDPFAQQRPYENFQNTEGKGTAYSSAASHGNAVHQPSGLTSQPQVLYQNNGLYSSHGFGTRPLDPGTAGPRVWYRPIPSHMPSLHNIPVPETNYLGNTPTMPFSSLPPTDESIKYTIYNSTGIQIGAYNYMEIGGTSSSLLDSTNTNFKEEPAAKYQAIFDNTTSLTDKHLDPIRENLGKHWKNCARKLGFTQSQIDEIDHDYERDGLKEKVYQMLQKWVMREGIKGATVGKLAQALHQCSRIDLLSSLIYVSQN

[3] = molecular target: Receptor-interacting serine/threonine-protein kinase 3 (Homo sapiens) (UniProt Q9Y572); assay: Inhibition of full length RIP3 (unknown origin) assessed as substrate phosphorylation using MBP and ATP as substrate at 10 uM preincubated for 15 mins followed by substrate addition and measured after 90 mins by ADP-Glo luminescence assay; values are per cent of control; conditions: time 105.0 min
[4] = molecular target: T1, Receptor-interacting serine/threonine-protein kinase 1 (Homo sapiens); assay: Inhibition of RIP1 (1 to 375 residues) (unknown origin) assessed as substrate phosphorylation using MBP and ATP as substrate at 1 uM preincubated for 15 mins followed by substrate addition and measured after 90 mins by ADP-Glo luminescence assay; values are per cent of control; conditions: time 105.0 min

Sequence of Receptor-interacting serine/threonine-protein kinase 3 (Homo sapiens) (Q9Y572 whole entry, looked up, the tested form may be a part): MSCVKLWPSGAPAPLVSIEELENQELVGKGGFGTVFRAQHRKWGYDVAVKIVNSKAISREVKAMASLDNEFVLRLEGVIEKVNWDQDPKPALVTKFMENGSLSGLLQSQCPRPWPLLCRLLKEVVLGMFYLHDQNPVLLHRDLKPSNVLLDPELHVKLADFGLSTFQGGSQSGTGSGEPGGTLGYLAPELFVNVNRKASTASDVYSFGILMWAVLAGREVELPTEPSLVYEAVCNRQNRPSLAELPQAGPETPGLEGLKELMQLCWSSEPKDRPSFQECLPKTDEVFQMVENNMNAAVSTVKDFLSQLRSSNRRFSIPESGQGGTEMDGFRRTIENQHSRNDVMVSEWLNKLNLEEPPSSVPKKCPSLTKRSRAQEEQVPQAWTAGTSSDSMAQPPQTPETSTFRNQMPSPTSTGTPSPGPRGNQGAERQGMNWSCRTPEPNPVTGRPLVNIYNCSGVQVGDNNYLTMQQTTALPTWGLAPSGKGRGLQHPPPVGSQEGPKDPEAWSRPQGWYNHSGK

| Structure (SMILES) | EC50 (HT-29) [nM] | further results |
| --- | --- | --- |
| COc1ccc(CC(=O)Nc2c(Cl)n(CC#Cc3cccc(O)c3)c(=O)n(C)c2=O)cc1 | 1400 |  |
| C=CS(=O)(=O)Nc1c(OC)n(CC#Cc2cccc(O)c2)c(=O)n(C)c1=O | > 10000 |  |
| Cn1c(=O)c(NC(=O)CCc2ccc(C#N)cc2)c(Cl)n(CC#Cc2cccc(O)c2)c1=O | 639 |  |
| Cn1c(=O)c(NC(=O)CC(C)(C)C)c(Cl)n(CC#Cc2cccc(O)c2)c1=O | 5280 |  |
| Cc1ccc(CCC(=O)Nc2c(Cl)n(CC#Cc3ccc(F)c(Cn4ccccc4=O)c3)c(=O)n(C)c2=O)cc1 | 139 |  |
| COc1ccc(C#CCn2c(Cl)c(NC(=O)CCc3ccc(C)cc3)c(=O)n(C)c2=O)cc1Cn1ccccc1=O | 85 |  |
| Cn1c(=O)c(NC(=O)/C=C/c2ccccc2)c(Cl)n(CC#Cc2cccc(O)c2)c1=O | > 10000 |  |
| COc1ccc(C#CCn2c(Cl)c(NC(=O)CCc3ccc(C)cc3)c(=O)n(C)c2=O)cc1 | 3390 |  |
| Cc1ccc(CCC(=O)Nc2c(Cl)n(CC#Cc3ccc(O)cc3)c(=O)n(C)c2=O)cc1 | 222 | residual activity [1]: 90.5%; residual activity [2]: 96.1%; residual activity [3]: 102%; residual activity [4]: 92.1% |
| Cc1ccc(CCC(=O)Nc2c(Cl)n(CC#Cc3ccc(Cl)c(Cn4ccccc4=O)c3)c(=O)n(C)c2=O)cc1 | 110 |  |
| Cn1c(=O)c(NC(=O)Cc2cccc(F)c2)c(Cl)n(CC#Cc2cccc(O)c2)c1=O | 2320 |  |
| Cc1ccc(CCC(=O)Nc2c(Cl)n(CC#Cc3ccc4c(c3)CCC(=O)O4)c(=O)n(C)c2=O)cc1 | 113 |  |
| Cc1ccc(CCC(=O)Nc2c(Cl)n(CC#Cc3ccc(O)cc3)c(=O)n(CC3CCCC3)c2=O)cc1 | > 10000 |  |
| CCC(=O)Nc1c(Cl)n(CC#Cc2cccc(O)c2)c(=O)n(C)c1=O | 3380 |  |
| Cc1ccc(CCC(=O)Nc2c(Cl)n(CC#Cc3ccc(NCc4ccccc4)cc3)c(=O)n(C)c2=O)cc1 | 2020 |  |
| Cn1c(=O)c(NC(=O)Cc2ccccc2)c(Cl)n(CC#Cc2cccc(O)c2)c1=O | 1490 |  |
| CCn1c(=O)c(NC(=O)CCc2ccc(C)cc2)c(Cl)n(CC#Cc2ccc(O)cc2)c1=O | 2220 |  |
| COc1cccn(Cc2cc(C#CCn3c(Cl)c(NC(=O)CCc4ccc(C)cc4)c(=O)n(C)c3=O)ccc2Cl)c1=O | 90 |  |
| Cc1ccc(CCC(=O)Nc2c(Cl)n(CC#Cc3ccc4cc[nH]c4c3)c(=O)n(C)c2=O)cc1 | 727 |  |
| Cc1ccc(CCC(=O)Nc2c(Cl)n(CC#Cc3ccc4c(c3)CCC(=O)N4)c(=O)n(C)c2=O)cc1 | 132 | residual activity [1]: 102%; residual activity [2]: 94.5%; residual activity [3]: 90.5%; residual activity [4]: 109% |
| Cn1c(=O)c(NC(=O)CCc2cccc(F)c2)c(Cl)n(CC#Cc2cccc(O)c2)c1=O | 6300 |  |
| CCC(C)C(=O)Nc1c(Cl)n(CC#Cc2cccc(O)c2)c(=O)n(C)c1=O (stereo not given) | 1740 |  |

| Structure (SMILES) | EC50 (HT-29) [nM] | further results |
| --- | --- | --- |
| Cc1ccc(CCC(=O)Nc2c(Cl)n(CC#Cc3ccc(Cn4ccccc4=O)cc3)c(=O)n(C)c2=O)cc1 | 168 |  |
| Cc1ccc(CCC(=O)Nc2c(Cl)n(CC#Cc3ccc(NC(=O)c4ccccc4)cc3)c(=O)n(C)c2=O)cc1 | 214 |  |
| Cc1ccc(CCC(=O)Nc2c(Cl)n(CC#Cc3ccc4c(c3)CCC(=O)N4C)c(=O)n(C)c2=O)cc1 | 281 |  |
| C=CC(=O)Nc1cn(CC#Cc2cccc(O)c2)c(=O)n(C)c1=O | > 10000 |  |
| COc1ccn(Cc2cccc(C#CCn3c(Cl)c(NC(=O)CCc4ccc(C)cc4)c(=O)n(C)c3=O)c2)c(=O)c1 | 93 |  |
| Cc1ccc(C(=O)Nc2ccc(CN3CCN(C)CC3)c(C(F)(F)F)c2)cc1C#Cc1cnc2cccnn12 [PONATINIB] | 440 | residual activity [1]: 0.97%; residual activity [2]: 0.4%; residual activity [3]: 0.31%; residual activity [4]: 3.8% |
| Cn1c(=O)c(NC(=O)CCc2ccccc2F)c(Cl)n(CC#Cc2cccc(O)c2)c1=O | 829 |  |
| C#CCn1c(Cl)c(NC(=O)CCc2ccc(C)cc2)c(=O)n(C)c1=O | 7240 |  |
| CC(=O)Nc1ccc(C#CCn2c(Cl)c(NC(=O)CCc3ccc(C)cc3)c(=O)n(C)c2=O)cc1 | 717 |  |
| COc1ccc(C#CCn2c(Cl)c(NC(=O)CCc3ccc(C)cc3)c(=O)n(C)c2=O)cc1Cn1cccc(OC)c1=O | 85 | residual activity [1]: 96.3%; residual activity [2]: 101%; residual activity [3]: 99.3%; residual activity [4]: 111% |
| Cc1ccc(CCC(=O)Nc2c(Cl)n(CC#Cc3cccc(Cn4cccc(C)c4=O)c3)c(=O)n(C)c2=O)cc1 | 134 |  |
| Cc1ccc(CCC(=O)Nc2c(Cl)n(CC#Cc3cccc(N)c3)c(=O)n(C)c2=O)cc1 | 1060 |  |
| Cc1ccc(CCC(=O)Nc2c(Cl)n(CC#Cc3cccc(Cn4ccccc4=O)c3)c(=O)n(C)c2=O)cc1 | 136 |  |
| COc1cccn(Cc2cc(C#CCn3c(Cl)c(NC(=O)CCc4ccc(C)cc4)c(=O)n(C)c3=O)ccc2F)c1=O | 91 |  |
| Cc1ccc(CCC(=O)Nc2c(Cl)n(CC#Cc3cccc(Cn4c(C)cccc4=O)c3)c(=O)n(C)c2=O)cc1 | 122 |  |
| C=CS(=O)(=O)Nc1c(C)n(CC#Cc2cccc(O)c2)c(=O)n(C)c1=O | > 10000 |  |
| CC(=O)Nc1cccc(C#CCn2c(Cl)c(NC(=O)CCc3ccc(C)cc3)c(=O)n(C)c2=O)c1 | 870 |  |
| Cn1c(=O)c(NC(=O)CCc2ccc(Cl)cc2)c(Cl)n(CC#Cc2cccc(O)c2)c1=O | 540 |  |
| Cn1c(=O)c(NC(=O)Cc2ccc(F)cc2)c(Cl)n(CC#Cc2cccc(O)c2)c1=O | 4600 |  |
| C=CS(=O)(=O)Nc1cn(CC#Cc2cccc(O)c2)c(=O)n(C)c1=O | 2480 |  |
| COc1cccn(Cc2cccc(C#CCn3c(Cl)c(NC(=O)CCc4ccc(C)cc4)c(=O)n(C)c3=O)c2)c1=O | 82 |  |
| Cc1ccc(CCC(=O)Nc2c(Cl)n(CC#Cc3ccc4[nH]ccc4c3)c(=O)n(C)c2=O)cc1 | 332 |  |

| Structure (SMILES) | EC50 (HT-29) [nM] | further results |
| --- | --- | --- |
| Cn1c(=O)c(NC(=O)CCc2ccc(F)cc2)c(Cl)n(CC#Cc2cccc(O)c2)c1=O | 455 |  |
| Cn1c(=O)c(NC(=O)CCCc2ccccc2)c(Cl)n(CC#Cc2cccc(O)c2)c1=O | > 10000 |  |
| Cc1ccc(CCC(=O)Nc2c(Cl)n(CC#Cc3cccc(Cn4cc(C)ccc4=O)c3)c(=O)n(C)c2=O)cc1 | 158 |  |
| Cc1ccc(CCC(=O)Nc2c(Cl)n(CC#Cc3ccccc3)c(=O)n(C)c2=O)cc1 | 1990 |  |
| Cn1c(=O)c(NC(=O)Cc2ccccc2F)c(Cl)n(CC#Cc2cccc(O)c2)c1=O | 3350 |  |
| CCc1ccc(CCC(=O)Nc2c(Cl)n(CC#Cc3cccc(O)c3)c(=O)n(C)c2=O)cc1 | 998 |  |
| CCCCCCCC(=O)Nc1c(Cl)n(CC#Cc2cccc(O)c2)c(=O)n(C)c1=O | 2340 |  |
| Cc1ccc(CCC(=O)Nc2c(Cl)n(CC#Cc3ccc(N)cc3)c(=O)n(C)c2=O)cc1 | 1020 |  |
| Cn1c(=O)c(NC(=O)Cc2ccc(Cl)cc2)c(Cl)n(CC#Cc2cccc(O)c2)c1=O | 3770 |  |
| CCC(C)(C)C(=O)Nc1c(Cl)n(CC#Cc2cccc(O)c2)c(=O)n(C)c1=O | > 10000 |  |
| C=CC(=O)Nc1c(C)n(CC#Cc2cccc(O)c2)c(=O)n(C)c1=O | > 10000 |  |
| COCCOCC(=O)Nc1c(Cl)n(CC#Cc2cccc(O)c2)c(=O)n(C)c1=O | 4270 |  |
| C=CC(=O)Nc1c(Cl)n(CC#Cc2cccc(O)c2)c(=O)n(C)c1=O | 950 | residual activity [1]: 102%; residual activity [2]: 86.2%; residual activity [3]: 108%; residual activity [4]: 84.2% |
| CCCn1c(=O)c(NC(=O)CCc2ccc(C)cc2)c(Cl)n(CC#Cc2ccc(O)cc2)c1=O | 1020 |  |
| C=CC(=O)Nc1c(OC)n(CC#Cc2cccc(O)c2)c(=O)n(C)c1=O | > 10000 |  |
| Cc1ccc(CCC(=O)Nc2c(Cl)n(CC#Cc3cccc(Cn4ccc(C)cc4=O)c3)c(=O)n(C)c2=O)cc1 | 106 |  |
| C=CS(=O)(=O)Nc1c(Cl)n(CC#Cc2cccc(O)c2)c(=O)n(C)c1=O | 5680 |  |
| Cn1c(=O)c(NC(=O)CCc2ccccc2)c(Cl)n(CC#Cc2cccc(O)c2)c1=O | 1070 |  |
| Cc1ccc(CCC(=O)Nc2c(Cl)n(CC#Cc3cccc(O)c3)c(=O)n(C)c2=O)cc1 | 316 |  |
| Cn1c(=O)c(NC(=O)c2ccccc2)c(Cl)n(CC#Cc2cccc(O)c2)c1=O | > 10000 |  |
| Cc1ccc(CCC(=O)Nc2c(Cl)n(CC#Cc3cccc(NC(=O)c4ccccc4)c3)c(=O)n(C)c2=O)cc1 | 1000 |  |
